In patent US9351966B2, “Composition comprising a combination of omeprazole and lansoprazole, and a buffering agent, and methods of using same” (The Curators of the University of Missouri, priority 2008, dated 2016):

Key:
[1] = cited from earlier work; for t1/2: Table 1, daily dose 15-160 mg as listed; for half-life of elimination, normal, mean: drug given alone; for mean plasma elimination half-life: healthy adults, clinical studies
[2] = Cross-over study, blood draws: AUC and half-life of PPI; type: in vivo, human; conditions: for prolongation factor of elimination half-life: omeprazole and lansoprazole administered together versus normal
Protocol: (§1) A study was performed as a cross-over design, with washout between doses. The subject received the test article after placing a Bravo pH probe in the stomach and verifying its placement with pH readings of less than 2. After a baseline evaluation, to ensure that the pH probe is in the correct place for reading gastric acid in the stomach, the subject has an intravenous access established and a baseline blood draw was taken to provide evidence of a lack of PPI in the blood at baseline. The subject received the one of three different formulations, and the time of administration was noted. Blood draws were taken at intervals to characterize the absorption, distribution and elimination phases of the test article. […] Continuous gastric pH recording was made utilizing the Bravo pH probe and radiofrequency receiver. Gastric pH values were recorded every 10 seconds.
as §1, with “eighteen” for “three”

intragastric acidity = conditions: after a single dose of PPI (Day 1); 20 mg delayed release; cited from earlier work
[3] = test system: 2C19 and 3A4 isoforms of the Cytochrome P450 enzyme; conditions: liver; cited from earlier work
[4] = clinical trials; Zegerid (omeprazole) and Prevacid (lansoprazole) package inserts; cited from earlier work
Barrett's esophagus = conditions: extended treatment (years), twice per day or more, with or without surgery; cited from earlier work
[5] = rats; drug or its metabolites; cited from earlier work

SMILES: COc1ccnc(C[S+]([O-])c2nc3ccc(OC(F)F)cc3[nH]2)c1OC (stereo not shown) [Pantoprazole]
- t1/2 [1]: 1.2 to 1.5 h

SMILES: COc1ccc2[nH]c([S+]([O-])Cc3ncc(C)c(OC)c3C)nc2n1 (stereo not shown) [Tentaoprazole, 5-methoxy-2-[[(4-methoxy-3,5-dimethyl-2-pyridyl)methyl]sulfinyl]imidazo[4,5-b]pyridine]
- t1/2 [1]: 6.8 to 8 h

SMILES: COc1ccc2nc([S@@+]([O-])Cc3ncc(C)c(OC)c3C)[nH]c2c1 [Esomerprazole]
- t1/2 [1]: 1.1 to 1.6 h

SMILES: COc1ccc2[nH]c([S+]([O-])Cc3ncc(C)c(OC)c3C)nc2c1 (stereo not shown) [Omeprazole, 5-methoxy-2-[[(4-methoxy-3,5-dimethyl-2-pyridinyl)methyl]sulfinyl]-1H benzimidazole]
- t1/2 [1]: 0.9 to 1.5 h
- half-life of elimination, normal, mean [1]: approximately 0.95 hrs
- mean plasma elimination half-life [1]: less than 1 hours
- prolongation factor of elimination half-life [2]: 200%
- elimination half-life when administered together ([2]; omeprazole and lansoprazole together, e.g. 80 mg lansoprazole+80 mg omeprazole+1680 mg sodium bicarbonate): 1.9 h
- IGA-24Day 1 (intragastric acidity): 640 mmol·h/L
- metabolism by Cytochrome P450 isoforms [3]: mostly by the 2C19 isoform
- Adverse effect: Abdominal pain [4]: 5.2 % of patients
- Adverse effect: Asthenia [4]: 1.3 % of patients
- Adverse effect: Constipation [4]: 1.5 % of patients
- Adverse effect: Diarrhea [4]: 3.7 % of patients
- Adverse effect: Headache [4]: 2.9 % of patients
- patients with reversal of Barrett's esophagus (Barrett's esophagus): 3 of 123

SMILES: COCCCOc1ccnc(C[S+]([O-])c2nc3ccccc3[nH]2)c1C (stereo not shown) [Rabeprazole]
- t1/2 [1]: 0.8 to 1 h

SMILES: Cc1c(OCC(F)(F)F)ccnc1C[S@@+]([O-])c1nc2ccccc2[nH]1 [Dexlansoprazole]
- t1/2 [1]: 1 to 1.6 h

SMILES: Cc1c(OCC(F)(F)F)ccnc1C[S+]([O-])c1nc2ccccc2[nH]1 (stereo not shown) [Lansoprazole]
- t1/2 [1]: 1 to 1.5 h
- half-life of elimination, normal, mean [1]: approximately 1.2 hrs
- mean plasma elimination half-life [1]: about 1.5 hours
- half-life ([2]; human, blood, oral, omeprazole and lansoprazole together, e.g. 80 mg lansoprazole+80 mg omeprazole+1680 mg sodium bicarbonate, read-out: elimination half-life when administered together (converted)): 3.7 h
- prolongation factor of elimination half-life [2]: 300%
- metabolism by Cytochrome P450 isoforms [3]: approximately equal amounts by both the 2C19 and 3A4 isoforms
- Adverse effect: Abdominal pain [4]: 2.1 % of patients
- Adverse effect: Asthenia [4]: <1 % of patients
- Adverse effect: Constipation [4]: 1.0 % of patients
- Adverse effect: Diarrhea [4]: 3.8 % of patients
- Adverse effect: Headache [4]: <1 % of patients
- patients with reversal of Barrett's esophagus (Barrett's esophagus): 3 of 123
- excretion in breast milk [5]: excreted in breast milk
